Source: patent US4414225A, “Azepine derivatives and their anti-thrombotic compositions and methods” (Dr. Karl Thomae Gesellschaft mit beschrankter Haftung, priority 1981, dated 1983)

Columns and labels:
hyperlipemic rat = experiment: Cholesterol-reducing effect: test on the hyperlipemic rat; format: in vivo; conditions: 50 mgm/kg by esophageal tube on two successive days, serum 24 hours after final administration
Experimental: (§1) 1. Cholesterol-reducing effect
(a) Test on the hyperlipemic rat: Literatur: P. E. Schurr et al., Atherosclerosis Drug Discovery (1976), published by C. E. Day; Plenum, New York, page 215.
Young male rats with an average body weight of 100 gm were made hypercholesterolemic by feeding them for 4 days on a diet consisting of 10% coconut oil, 1.5% cholesterol, 0.5% cholic acid, 0.2% choline chloride and 15% sucrose. While continuing with the diet, the test compound was administered in a methyl cellulose suspension by esophageal tube on two successive days. The animals were then made to fast overnight and 24 hours after the final administration of the test compound a blood sample was taken in order to obtain serum.
In the serum, the total cholesterol was determined enzymatically (Boehringer Mannheim Test Combination 126 039) and the β-lipoproteinswere determined by nephelometry, after precipitation with Ca^++ and heparin, in the Autoanalyzer. The percentage reduction was calculated by comparison with a control group: […]

normolipemic rat = experiment: Cholesterol-reducing effect: test on the normolipemic rat; format: in vivo; conditions: 1.1 mg/kg (A) or 20.0 mg/kg (B), by esophageal tube twice with interval of 20 hours, serum after 28 and 44 hours
Experimental: as §1
(b) Test on the normolipemic rat:
Male normolipemic rats with an average body weights of 250 to 300 gm were given the test compound by esophageal tube twice with an interval of 20 hours. At the start of the test, the animals were deprived of food but had free access to drinking water. The serum cholesterol levels were determined enzymatically (Boehringer Mannheim Test Combination 126.039) after 28 and 44 hours. The percentage reduction was calculated in comparison with a control group: […]

Acute toxicity = format: in vivo; conditions: maximum doses used (50 mg/kg per os)
[1] = test system: thrombocytes of healthy human test subjects; experiment: Born test: collagen-induced thrombocyte aggregation, with and without PGI2 (in vitro); format: cell-based; conditions: n = 4; for inhibition at 100 µM: Homo sapiens; for mm height of curve (Born test): control 129
Experimental: (§2) 2. Antithrombotic Activity: (a) The thrombocytes of healthy human test subjects were incubated for 10 minutes at 37° C. with the test substance (final concentration: 1×10^-4 mol/l). Then, aggregation was initiated with collagen in the Born test in the usual way. Shortly before aggregation was initiated, a small quantity of supernatant liquid containing prostacycline, which was obtained from rings of aorta placed in the TRIS buffer, was added to the test sample. The quantity of supernatant liquid containing prostacycline was selected so that on its own it had little or no inhibiting effect. The sample incubated with the substance reacted with PGI2 to give an inhibition of aggregation which was more than additive.

[2] = test system: thrombocytes of healthy human test subjects; experiment: Adenosine-potentiating effect in the Born Test (thrombocyte aggregation); format: cell-based; conditions: n = 4; for mm height of curve (Born test): control 114
thrombocyte aggregation = experiment: Prostacycline-reinforcing effect after oral administration in animals (Born Test on blood sample); format: in vivo, rat
Experimental: as §2, with “(a)” for “2. Antithrombotic Activity: (a)”
(c) Prostacycline-reinforcing effect after oral administration in animals:
Rats weighing 450 gm were given the compound orally at a dose of 20 mg/kg; then, after one hour, a blood sample was taken and the Born Test was carried out as described above.

[3] = PRP + compound C (1×10^-4 mol/l) + PGI2, collagen
[4] = PRP + compound C alone, 1×10^-4 mol/l, collagen
[5] = PRP + compound C alone (1 × 10^-4)

## CCCCCCCCCCCCN1CCc2cc(C(=O)[O-])sc2CC1.[Na+]
Hyperlipemic rat
  Percentage reduction compared with controls: Cholesterol in the serum: -21%
  Percentage reduction compared with controls: β-lipoproteins in the serum: -51%
Normolipemic rat
  Percentage reduction compared with control: Total cholesterol in the serum: -20%
Acute toxicity
  toxic side effects: no toxic side effects were observed

## Cl.O=C(O)c1cc2c(s1)CCN(Cc1ccccc1)CC2 [A, 6-Benzyl-5,6,7,8-tetrahydro-4H-thieno[2,3-d]azepine-2-carboxylic acid hydrochloride]
Normolipemic rat
  Percentage reduction compared with control: Total cholesterol in the serum: -26%
Acute toxicity
  toxic side effects: no toxic side effects were observed

## Cl.Clc1ccccc1CN1CCc2ccsc2CC1 [C, 6-(2-Chlorobenzyl)-5,6,7,8-tetrahydro-4H-thieno[2,3-d]azepine hydrochloride]
[1]; [3]
  inhibition at 100 µM: 69%
  mm height of curve (Born test): 38 mm
[1]; [4]
  inhibition at 100 µM: 20.7%
  mm height of curve (Born test): 101 mm
[2]; PRP + compound C + adenosine
  % inhibition of thrombocyte aggregation: 61%
  mm height of curve (Born test): 44 mm
[2]; [5]
  % inhibition of thrombocyte aggregation: 33%
  mm height of curve (Born test): 75 mm
Thrombocyte aggregation; rats treated with 20 mg/kg per os of compound C, blood sample after one hour, without PGI2, averages from three sets of tests on four animals
  inhibition of aggregation: 4%
Thrombocyte aggregation; rats treated with compound C, 20 mg/kg per os, blood sample after one hour, + PGI2
  inhibition of aggregation: 100%
Acute toxicity
  toxic side effects: no toxic side effects were observed

## Nc1ncnc2c1ncn2[C@@H]1O[C@H](CO)[C@@H](O)[C@H]1O [adenosine, reference compound]
[2]; PRP + adenosine alone
  % inhibition of thrombocyte aggregation: 20%
  mm height of curve (Born test): 91 mm

## PGI2 [reference compound]
[1]; PRP + PGI2 alone, collagen
  % inhibition of thrombocyte aggregation: 30%
  mm height of curve (Born test): 90 mm
Thrombocyte aggregation; plasma of control animals + PGI2
  inhibition of aggregation: 20%
